“Also recorded” adds a separate entry of the source.
What was measured:
[1] = system: Umbilical cord blood cells that express the stem/progenitor marker CD34; test: Direct measurement of environmental mutagenicity (DMEM): exposed single cells, PTA and single-cell sequencing; type: cell-based, human; conditions: for enrichment of variants in DNase I hypersensitive (DH) sites: ENU-exposed CD34+ cells vs Roadmap Epigenomics DH sites (FIG. 12D, 12E)
Source text: PTA was used to conduct a novel mutagenicity assay that provides a framework for performing high-resolution, genome wide human toxicogenomics studies. Previous studies such as the Ames test, relies on bacterial genetics to make measurements that are assumed to be representative of human cells while only providing limited information on the mutation number and patterns induced in each exposed cell. To overcome these limitations, a human mutagenesis system “direct measurement of environmental mutagenicity (DMEM)” was developed, wherein single human cells was exposed to an environmental compound, isolated as single cells, and subjected to single-cell sequencing to identify the new mutations induced in each cell.
Umbilical cord blood cells that express the stem/progenitor marker CD34 were exposed to increasing concentrations of the direct mutagen N-ethyl-N-nitrosourea (ENU).
ENU (CAS 759-73-9) and D-mannitol (CAS 69-65-8) were put into solution at their maximal solubility. Fresh anticoagulant-treated umbilical cord blood (CB) was obtained from St. Louis Cord Blood Bank. CB was diluted 1:2 with PBS and mononuclear cells (MNCs) were isolated by density gradient centrifugation on Ficoll-Paque Plus according to manufacturer's instructions. CB MNCs expressing CD34 were then immunomagnetically selected using the human CD34 microbead kit and magnetic cell sorting (MACS) system as per the manufacturer. Cell count and viability were assessed using the Luna FL cell counter. CB CD34+ cells were seeded at a density of 2.5×10^4 cells/mL in StemSpan SFEM supplemented with 1×CD34+ Expansion supplement, 100 units/mL of penicillin, and 100 ug/mL of streptomycin where they expanded for 96 hours before proceeding to mutagen exposure.
Expanded cord blood CD34+ cells were cultured in StemSpan SFEM supplemented with 1×CD34+ Expansion Supplement, 100 units/mL of penicillin, and 100 ug/mL of streptomycin. The cells were exposed to ENU at concentrations of 8.54, 85.4, and 854 uM, D-mannitol at 1152.8, and 11528 uM, or 0.9% sodium chloride (vehicle control) for 40 hours. Single-cell suspensions from drug-treated cells and vehicle control samples were harvested and stained for viability as described above. Single cell sorts were carried out as described above. PTA was performed and libraries were prepared using a simplified and improved protocol as per the general methods of the methods described herein, and Example 2.
Data acquired from cells in the DMEM experiments were trimmed using Trimmomatic, aligned to GRCh38 using BWA, and further processed using GATK 4.0.1 best practices without deviation from the recommended parameters. Genotyping was performed using HaplotypeCaller where joint genotypes were again filtered using standard parameters. […] The trinucleotide context of each SNV was determined by extracting the surrounding bases from the reference genome using bedtools. Mutation counts and context were visualized using ggplot2 and heatmap2 in R.
To determine whether mutations were enriched in DNase I hypersensitivity sites (DHS) in CD34+ cells, the proportion of SNVs in each sample that overlap with DHS sites from 10 CD34+ primary cell datasets produced by the Roadmap Epigenomics Project were calculated. DHS sites were extended by 2 nucleosomes, or 340 bases in either direction. Each DHS dataset was paired with a single cell sample where we determined the proportion of the human genome with at least 10× coverage in that cell which overlapped with a DHS, which was compared to the proportion of SNVs that were found within the covered DHS sites.

mice = conditions: limited sequencing of target genes; cited from earlier work
[2] = system: leukemia cells; clone harboring an activating KRAS mutation; test: Leukemia cells in culture exposed to increasing concentrations of standard ALL chemotherapy drugs, bulk sequencing of clones; type: cell-based, human; conditions: for sensitivity of the clone harboring an activating KRAS mutation: pediatric ALL sample in culture, bulk sequencing (FIG. 7)
Source text: Single-cell exome sequencing of individual leukemia cells harboring an ETV6-RUNX1 translocation has been performed, measuring approximately 200 coding mutations per cell, only 25 of which have been present in enough cells to be detected with standard bulk sequencing in that patient. The mutation load per cell has then been incorporated with other known features of this type of leukemia, such as the replication-associated mutation rate (1 coding mutation/300 cell divisions), the time from initiation to diagnosis (4.2 years), and the population size at the time of diagnosis (100 billion cells) to create an in silico simulation of the development of the disease. It has been unexpectedly discovered that even in what has been thought to be a genetically simple cancer such as pediatric ALL, there are an estimated 330 million clones with distinct coding mutation profiles at the time of diagnosis in that patient. […] Accordingly, methods are provided for enhancing the sensitivity of detection so that clones that make up at least 0.01% (1:10,000) of the cells (box B) can be detected, as this is the stratum in which most resistant disease that causes relapse is hypothesized to reside.
Given such a massive population genetic diversity, it has been hypothesized that there are clones that are more resistant to treatment within a given patient. To test that hypothesis, the sample is placed in culture and the leukemia cells are exposed to increasing concentrations of standard ALL chemotherapy drugs. […] This approach also employed bulk sequencing of the treated samples. The use of single-cell DNA sequencing in some instances allows a determination of the diversity and clonotypes of the expanding populations.

## CCN(N=O)C(N)=O [ENU, N-ethyl-N-nitrosourea]
[1]; ENU 8.54, 85.4 and 854 uM, 40 hours, cord blood CD34+ cells (FIG. 12A)
  mutation number of each cell: dose-dependent increase in mutation number of each cell
[1]; ENU-exposed CD34+ cells (FIG. 12B)
  type of base changes induced: the most common mutations are T to A (A to T), T to C (A to G), and C to T (G to A); also recorded: C to G (G to C) transversion appears to be rare
[1]; ENU-exposed CD34+ cells (FIG. 12C)
  trinucleotide context of the SNVs: cytosine mutagenesis appears to be rare when cytosine is followed by guanine; also recorded: most thymine variants occur where adenine is present before thymine
[1]; ENU-exposed CD34+ cells (FIG. 12F)
  genomic feature annotation of the variants relative to the genome: not significantly different; also recorded: No specific enrichment was seen in specific annotations
[1]
  enrichment of variants in DNase I hypersensitive (DH) sites: no enrichment of cytosine variants in DNase I hypersensitivity sites was observed; also recorded: No significant enrichment in variant locations at DH sites was identified
[1]; listed as N-ethyl-N-nitrosourea
  enrichment of variants in DNase I hypersensitive (DH) sites: No significant enrichment of cytosine variants was observed
mice
  preference of base changes: preference for T to A (A to T), T to C (A to G), and C to T (G to A) changes

## COc1cccc2c1C(=O)c1c(O)c3c(c(O)c1C2=O)C[C@@](O)(C(C)=O)C[C@@H]3O[C@H]1C[C@H](N)[C@H](O)[C@H](C)O1 [daunorubicin]
[2]
  sensitivity of the clone harboring an activating KRAS mutation: more sensitive; also recorded: killed

## C[C@]12C=CC(=O)C=C1CC[C@@H]1[C@@H]2[C@@H](O)C[C@@]2(C)[C@H]1CC[C@]2(O)C(=O)CO [prednisolone]
[2]
  sensitivity of the clone harboring an activating KRAS mutation: more sensitive; also recorded: killed

## asparaginase
[2]; lowest dose of asparaginase, pediatric ALL sample in culture (FIG. 7)
  behaviour of the clone harboring an activating KRAS mutation: continued to expand

Reference: patent US11905553B2, “Method for nucleic acid amplification” (ST. JUDE CHILDREN'S RESEARCH HOSPITAL, INC., priority 2018, dated 2024)
